For five compounds, solubility and EC50 results are on record in US20250382344A1, “Soluble GLP1/GIP/NPY2 Receptor Triple Agonists” (Boehringer Ingelheim International GmH, priority 2024, published 2025).

The nature of series [1]: Solubility in 0.1 M phosphate buffer at pH 7. The series is classed as physicochemical. The conditions noted are these: 0.1 M phosphate buffer at pH 7, 10 mg/mL final peptide concentration, shaking 2 hours at room temperature, peptides as TFA-salts, measured sample pH 6.5-7.0.
The target in series [2] is T1, hGIPR (Homo sapiens, UniProt P48546).
T1 construct: expressed in transfected cells; host or cells: CHO CRE-luciferase reporter cells
T1 sequence (P48546 22-466): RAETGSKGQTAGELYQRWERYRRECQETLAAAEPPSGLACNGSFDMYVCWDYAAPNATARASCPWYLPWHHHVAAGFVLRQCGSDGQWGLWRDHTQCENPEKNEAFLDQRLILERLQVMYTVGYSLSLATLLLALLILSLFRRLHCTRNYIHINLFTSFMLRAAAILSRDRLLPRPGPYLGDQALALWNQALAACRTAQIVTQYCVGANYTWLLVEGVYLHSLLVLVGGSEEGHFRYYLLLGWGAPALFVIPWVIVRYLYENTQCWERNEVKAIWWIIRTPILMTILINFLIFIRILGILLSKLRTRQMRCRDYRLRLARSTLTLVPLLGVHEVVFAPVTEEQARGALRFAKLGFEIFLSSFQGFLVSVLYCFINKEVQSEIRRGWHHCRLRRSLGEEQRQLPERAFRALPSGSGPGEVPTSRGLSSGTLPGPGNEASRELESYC
Briefly: hGIPR CreLuc assay in 0.5% and 100% plasma (CHO CRE-luciferase reporter cells). The series is classed as cell-based. Background: Reporter assays use an easily measured gene product as a stand-in for the process of interest.

Series [3] has as its target T2, hGLP1R (Homo sapiens, UniProt P43220).
T2 construct: expressed in transfected cells; host or cells: HEK-293 CRE-luciferase reporter cells
In words: hGLP1R CreLuc assay in 0.5% and 100% plasma (HEK-293 CRE-luciferase reporter cells). The series is classed as cell-based. The conditions noted are these: HEK-293 reporter cells.

Setting [4] is: 0.5% human plasma, read-out: hGIPR 0.5% hP.
Where [5] appears, read: 0.5% human plasma, read-out: hGLP1R 0.5% hP.

What is called solubility is the concentration that dissolves in the medium under given conditions.

SMILES strings stand for the structures. Read-outs that look alike come from different tables or passages of the source.

T2 sequence (P43220 24-463): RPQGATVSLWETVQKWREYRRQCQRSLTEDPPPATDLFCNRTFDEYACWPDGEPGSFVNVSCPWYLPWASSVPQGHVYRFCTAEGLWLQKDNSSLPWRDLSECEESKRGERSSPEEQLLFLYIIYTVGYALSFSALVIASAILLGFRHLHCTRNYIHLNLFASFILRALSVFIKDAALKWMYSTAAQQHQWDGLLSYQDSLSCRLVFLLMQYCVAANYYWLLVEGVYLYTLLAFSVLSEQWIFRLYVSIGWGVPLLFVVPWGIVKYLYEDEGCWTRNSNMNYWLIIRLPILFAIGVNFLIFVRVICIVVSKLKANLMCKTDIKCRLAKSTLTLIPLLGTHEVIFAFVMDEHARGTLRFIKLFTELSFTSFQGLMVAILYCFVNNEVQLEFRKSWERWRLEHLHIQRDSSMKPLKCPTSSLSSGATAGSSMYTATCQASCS

Take `CC[C@H](C)[C@H](NC(=O)[C@H](CC(C)C)NC(=O)[C@H](Cc1c[nH]cn1)NC(=O)[C@H](CCCNC(=N)N)NC(=O)[C@@H](NC(=O)[C@H](Cc1ccccc1)NC(=O)[C@H](C)NC(=O)C(C)(C)NC(=O)[C@H](CCC(N)=O)NC(=O)[C@H](C)NC(=O)[C@H](CCC(N)=O)NC(=O)[C@H](CCCCN)NC(=O)[C@H](CCC(=O)O)NC(=O)[C@H](CC(C)C)NC(=O)C(C)(C)NC(=O)[C@@H](NC(=O)[C@H](CO)NC(=O)[C@H](Cc1ccc(O)cc1)NC(=O)[C@H](CC(=O)O)NC(=O)[C@H](CO)NC(=O)[C@@H](NC(=O)[C@H](Cc1ccccc1)NC(=O)[C@@H](NC(=O)CNC(=O)[C@H](CCC(=O)O)NC(=O)C(C)(C)NC(=O)[C@@H](N)Cc1ccc(O)cc1)[C@@H](C)O)[C@@H](C)O)[C@@H](C)CC)C(C)C)C(=O)N[C@@H](CC(N)=O)C(=O)N[C@@H](CCCCNC(=O)CCCCCNC(=O)CCCCCNC(=O)CC[C@H](NC(=O)CC[C@H](NC(=O)CC[C@H](NC(=O)CC[C@H](NC(=O)CC[C@H](NC(=O)CCCCCCCCCCCCCCCCC(=O)O)C(=O)O)C(=O)O)C(=O)O)C(=O)O)C(=O)O)C(=O)NC(C)(C)C(=O)N[C@H](C(=O)N[C@@H](CCCNC(=N)N)C(=O)N[C@@H](CCC(N)=O)C(=O)N[C@@H](CCCNC(=N)N)C(=O)N[C@@H](Cc1ccc(O)cc1)C(N)=O)[C@@H](C)O` [Compound 44, Y-Aib-E-G-T-F-T-S-D-Y-S-I-Aib-L-E-K-Q-A-Q-Aib-A-F-V-R-H-L-I-N-K(1,3)-Aib-T-R-Q-R-Y-NH2.C18DA-gGlu-gGlu-gGlu-gGlu-gGlu-AHX-AHX(1,2)]: in series [1], the solubility at 2 h worked out at 9800 µg/mL. Besides, the figures for the EC50 in series [2] (setting [4]) and in series [3] (setting [5]) were 0.1 nM and 0.2 nM, respectively.

Turning to `CC[C@H](C)[C@H](NC(=O)[C@H](CC(C)C)NC(=O)[C@H](Cc1c[nH]cn1)NC(=O)[C@H](CCCNC(=N)N)NC(=O)[C@@H](NC(=O)[C@H](Cc1ccccc1)NC(=O)[C@H](C)NC(=O)C(C)(C)NC(=O)[C@H](CCC(N)=O)NC(=O)[C@H](C)NC(=O)[C@H](CCC(N)=O)NC(=O)[C@H](CCC(=O)O)NC(=O)[C@H](CCC(=O)O)NC(=O)[C@H](CC(C)C)NC(=O)C(C)(C)NC(=O)[C@@H](NC(=O)[C@H](CO)NC(=O)[C@H](Cc1ccc(O)cc1)NC(=O)[C@H](CC(=O)O)NC(=O)[C@H](CO)NC(=O)[C@@H](NC(=O)[C@H](Cc1ccccc1)NC(=O)[C@@H](NC(=O)CNC(=O)[C@H](CCC(=O)O)NC(=O)C(C)(C)NC(=O)[C@@H](N)Cc1ccc(O)cc1)[C@@H](C)O)[C@@H](C)O)[C@@H](C)CC)C(C)C)C(=O)N[C@@H](CC(N)=O)C(=O)N[C@@H](CCCCNC(=O)[C@@H](N)CCCCNC(=O)CC[C@H](NC(=O)CC[C@H](NC(=O)CC[C@H](NC(=O)CC[C@H](NC(=O)CC[C@H](NC(=O)CCCCCCCCCCCCCCCCC(=O)O)C(=O)O)C(=O)O)C(=O)O)C(=O)O)C(=O)O)C(=O)NC(C)(C)C(=O)N[C@H](C(=O)N[C@@H](CCCNC(=N)N)C(=O)N[C@@H](CCC(N)=O)C(=O)N[C@@H](CCCNC(=N)N)C(=O)N[C@@H](Cc1ccc(O)cc1)C(N)=O)[C@@H](C)O` [Compound 48, Y-Aib-E-G-T-F-T-S-D-Y-S-I-Aib-L-E-E-Q-A-Q-Aib-A-F-V-R-H-L-I-N-K(1,3)-Aib-T-R-Q-R-Y-NH2.C18DA-gGlu-gGlu-gGlu-gGlu-gGlu-eLys(1,2)], the solubility at 2 h in series [1] is 7700 µg/mL. Further, the EC50 in series [2] (setting [4]) was 0.1 nM; in series [3] (setting [5]), 0.5 nM.

Turning to `CC[C@H](C)[C@H](NC(=O)[C@H](CC(C)C)NC(=O)[C@H](Cc1c[nH]cn1)NC(=O)[C@H](CCCNC(=N)N)NC(=O)[C@@H](NC(=O)[C@H](Cc1ccccc1)NC(=O)[C@H](C)NC(=O)C(C)(C)NC(=O)[C@H](CCC(N)=O)NC(=O)[C@H](C)NC(=O)[C@H](CCC(N)=O)NC(=O)[C@H](CCCCN)NC(=O)[C@H](CCC(=O)O)NC(=O)[C@H](CC(C)C)NC(=O)[C@](C)(CC(C)C)NC(=O)[C@@H](NC(=O)[C@H](CO)NC(=O)[C@H](Cc1ccc(O)cc1)NC(=O)[C@H](CC(=O)O)NC(=O)[C@H](CO)NC(=O)[C@@H](NC(=O)[C@H](Cc1ccccc1)NC(=O)[C@@H](NC(=O)CNC(=O)[C@H](CCC(=O)O)NC(=O)C(C)(C)NC(=O)[C@@H](N)Cc1ccc(O)cc1)[C@@H](C)O)[C@@H](C)O)[C@@H](C)CC)C(C)C)C(=O)N[C@@H](CC(N)=O)C(=O)N[C@@H](CCCCNC(=O)CC[C@H](NC(=O)CC[C@H](NC(=O)CC[C@H](NC(=O)CC[C@H](NC(=O)CC[C@H](NC(=O)CC[C@H](NC(=O)CCCCCCCCCCCCCCCCCCC(=O)O)C(=O)O)C(=O)O)C(=O)O)C(=O)O)C(=O)O)C(=O)O)C(=O)NC(C)(C)C(=O)N[C@H](C(=O)N[C@@H](CCCNC(=N)N)C(=O)N[C@@H](CCC(N)=O)C(=O)N[C@@H](CCCNC(=N)N)C(=O)N[C@@H](Cc1ccc(O)cc1)C(N)=O)[C@@H](C)O` [Compound 49, Y-Aib-E-G-T-F-T-S-D-Y-S-I-aMeL-L-E-K-Q-A-Q-Aib-A-F-V-R-H-L-I-N-K(1,3)-Aib-T-R-Q-R-Y-NH2.C20DA-gGlu-gGlu-gGlu-gGlu-gGlu-gGlu(1,2)], the solubility at 2 h in series [1] is 10000 µg/mL. In addition, the results for the EC50 in series [2] (setting [4]) and in series [3] (setting [5]) were 0.1 nM and 0.3 nM, respectively.

`CC[C@H](C)[C@H](NC(=O)[C@H](CC(C)C)NC(=O)[C@H](Cc1c[nH]cn1)NC(=O)[C@H](CCCNC(=N)N)NC(=O)[C@@H](NC(=O)[C@H](Cc1ccccc1)NC(=O)[C@H](C)NC(=O)C(C)(C)NC(=O)[C@H](CCC(N)=O)NC(=O)[C@H](C)NC(=O)[C@H](CCC(N)=O)NC(=O)[C@H](C)NC(=O)[C@H](CC(=O)O)NC(=O)[C@H](CC(C)C)NC(=O)C(C)(C)NC(=O)[C@@H](NC(=O)[C@H](CO)NC(=O)[C@H](Cc1ccc(O)cc1)NC(=O)[C@H](CC(=O)O)NC(=O)[C@H](CO)NC(=O)[C@@H](NC(=O)[C@H](Cc1ccccc1)NC(=O)[C@@H](NC(=O)CNC(=O)[C@H](CCC(=O)O)NC(=O)C(C)(C)NC(=O)[C@@H](N)Cc1ccc(O)cc1)[C@@H](C)O)[C@@H](C)O)[C@@H](C)CC)C(C)C)C(=O)N[C@@H](CC(N)=O)C(=O)N[C@@H](CCCCNC(=O)[C@@H](N)CCCCNC(=O)CC[C@H](NC(=O)CC[C@H](NC(=O)CC[C@H](NC(=O)CC[C@H](NC(=O)CC[C@H](NC(=O)CC[C@H](NC(=O)CCCCCCCCCCCCCCCCC(=O)O)C(=O)O)C(=O)O)C(=O)O)C(=O)O)C(=O)O)C(=O)O)C(=O)NC(C)(C)C(=O)N[C@H](C(=O)N[C@@H](CCCNC(=N)N)C(=O)N[C@@H](CCC(N)=O)C(=O)N[C@@H](CCCNC(=N)N)C(=O)N[C@@H](Cc1ccc(O)cc1)C(N)=O)[C@@H](C)O` [Compound 55, Y-Aib-E-G-T-F-T-S-D-Y-S-I-Aib-L-D-A-Q-A-Q-Aib-A-F-V-R-H-L-I-N-K(1,3)-Aib-T-R-Q-R-Y-NH2.C18DA-gGlu-gGlu-gGlu-gGlu-gGlu-gGlu-eLys(1,2)]: the solubility at 2 h in series [1] stood at 8800 µg/mL. Moreover, the EC50 in series [2] (setting [4]) and in series [3] (setting [5]) was 0.4 nM each time.

Regarding `CC[C@H](C)[C@H](NC(=O)[C@H](CC(C)C)NC(=O)[C@H](Cc1c[nH]cn1)NC(=O)[C@H](CCCNC(=N)N)NC(=O)[C@@H](NC(=O)[C@H](Cc1ccccc1)NC(=O)[C@H](CCC(=O)O)NC(=O)C(C)(C)NC(=O)[C@H](CCC(N)=O)NC(=O)[C@H](C)NC(=O)[C@H](CCC(N)=O)NC(=O)[C@H](CCCCN)NC(=O)[C@H](CCC(=O)O)NC(=O)[C@H](CC(C)C)NC(=O)C(C)(C)NC(=O)[C@@H](NC(=O)[C@H](CO)NC(=O)[C@H](Cc1ccc(O)cc1)NC(=O)[C@H](CC(=O)O)NC(=O)[C@H](CO)NC(=O)[C@@H](NC(=O)[C@H](Cc1ccccc1)NC(=O)[C@@H](NC(=O)CNC(=O)[C@H](CCC(=O)O)NC(=O)C(C)(C)NC(=O)[C@@H](N)Cc1ccc(O)cc1)[C@@H](C)O)[C@@H](C)O)[C@@H](C)CC)C(C)C)C(=O)N[C@@H](CC(N)=O)C(=O)N[C@@H](CCCCNC(=O)CC[C@H](NC(=O)CC[C@H](NC(=O)CC[C@H](NC(=O)CC[C@H](NC(=O)CC[C@H](NC(=O)CC[C@H](NC(=O)CCCCCCCCCCCCCCCCC(=O)O)C(=O)O)C(=O)O)C(=O)O)C(=O)O)C(=O)O)C(=O)O)C(=O)NC(C)(C)C(=O)N[C@H](C(=O)N[C@@H](CCCNC(=N)N)C(=O)N[C@@H](CCC(N)=O)C(=O)N[C@@H](CCCNC(=N)N)C(=O)N[C@@H](Cc1ccc(O)cc1)C(N)=O)[C@@H](C)O` [Compound 56, Y-Aib-E-G-T-F-T-S-D-Y-S-I-Aib-L-E-K-Q-A-Q-Aib-E-F-V-R-H-L-I-N-K(1,3)-Aib-T-R-Q-R-Y-NH2.C18DA-gGlu-gGlu-gGlu-gGlu-gGlu-gGlu(1,2)], the solubility in series [1] (read-out: Solubility) was 4400 µg/mL. The EC50 in series [2] (setting [4]) is 0.4 nM; in series [2] (100% human plasma, read-out: hGIPR 100% hP), 19.3 nM; in series [3] (setting [5]), 0.7 nM; in series [3] (100% human plasma, read-out: hGLP1R 100% hP) it was 7.1 nM.
